Laboratory results: US20220213341A1, “COLORED RESIN PARTICLE DISPERSION, INK, INK SET, INK JET TEXTILE PRINTING METHOD, MANUFACTURING METHOD OF OIL-SOLUBLE DYE, AND PRINTED TEXTILE PRODUCT” (FUJIFILM CORPORATION, priority 2019, published 2022)

Test: MEK solubility of the dyes
Assay type: physicochemical
Settings: solubility in methyl ethyl ketone at 20° C.
Experimental: In the present disclosure, the “oil-soluble dye” means a dye having a solubility of 5 mass % or greater in methyl ethyl ketone at 20° C. (hereinafter, also referred to as “MEK solubility”).

SMILES	MEK Solubility
CCCCCCCCCCCCSCCS(=O)(=O)c1ccc(/N=N/c2c(S(=O)(=O)O)cc3cc(S(=O)(=O)O)c(/N=N/c4ccc(S(=O)(=O)CCSCCCCCCCCCCCC)cc4)c(O)c3c2N)cc1 [d-3]	10 mass %
CCCCCCCCN(CCCCCCCC)CCS(=O)(=O)c1ccc(/N=N/c2c(S(=O)(=O)O)cc3cc(S(=O)(=O)O)c(/N=N/c4ccc(S(=O)(=O)CCN(CCCCCCCC)CCCCCCCC)cc4)c(O)c3c2N)cc1 [d-9]	10 mass %
CCCCCCN(CCCCCC)CCS(=O)(=O)c1ccc(/N=N/c2c(S(=O)(=O)O)cc3cc(S(=O)(=O)O)c(/N=N/c4ccc(S(=O)(=O)CCN(CCCCCC)CCCCCC)cc4)c(O)c3c2N)cc1 [d-8]	10 mass %

Results, then the molecule that gave them:

MEK Solubility	SMILES
10 mass %	CCCCC(CC)COCCS(=O)(=O)c1ccc(/N=N/c2c(S(=O)(=O)O)cc3cc(S(=O)(=O)O)c(/N=N/c4ccc(S(=O)(=O)CCOCC(CC)CCCC)cc4)c(O)c3c2N)cc1 (stereo not drawn) [d-2]
10 mass %	CCCCC(CC)COCCCNCCS(=O)(=O)c1ccc(/N=N/c2c(S(=O)(=O)O)cc3cc(S(=O)(=O)O)c(/N=N/c4ccc(S(=O)(=O)CCNCCCOCC(CC)CCCC)cc4)c(O)c3c2N)cc1 (stereo not drawn) [d-4]
10 mass %	CC(C)(C)CC(C)(C)NCCS(=O)(=O)c1ccc(/N=N/c2c(S(=O)(=O)O)cc3cc(S(=O)(=O)O)c(/N=N/c4ccc(S(=O)(=O)CCNC(C)(C)CC(C)(C)C)cc4)c(O)c3c2N)cc1 [d-6]
7 mass %	CCCCN(CCCC)CCS(=O)(=O)c1ccc(/N=N/c2c(S(=O)(=O)O)cc3cc(S(=O)(=O)O)c(/N=N/c4ccc(S(=O)(=O)CCN(CCCC)CCCC)cc4)c(O)c3c2N)cc1 [d-7]
7 mass %	CC(C)CNCCS(=O)(=O)c1ccc(/N=N/c2c(S(=O)(=O)O)cc3cc(S(=O)(=O)O)c(/N=N/c4ccc(S(=O)(=O)CCNCC(C)C)cc4)c(O)c3c2N)cc1 [d-5]
